Results published in PMC5760633, “Determining direct binders of the Androgen Receptor using a high-throughput Cellular Thermal Shift Assay” (Scientific Reports, 2018).

Key:
[1] = test system: AR-driven transcription (ARE-Luciferase); assay: AR-driven transcription ARE Luciferase reporter assay in CWR22Pc-R1-AD1 cells; assay type: cell-based, human; conditions: 1 nM DHT, 24 h; for IC50: CWR22Pc-R1-AD1 cells, read-out: AR-driven transcription (ARE-Luciferase), 24 h, IC50; for Conclusion: activity in ARE-Luciferase assay: Supplementary Table S1;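 for all read-outs here: cells stably carrying an ARE-driven firefly luciferase reporter, with luminescence as read-out, tested in phenol red free RPMI containing 10% charcoal stripped FBS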
Method: 15 µL 2x Steady-Glo® reagent (Promega) was added per well and incubated 15 min in the dark before reading luminescence using an EnVision platereader. Experiments were performed in phenol red free RPMI media supplemented with 10% charcoal stripped FBS.

[2] = test system: AR-responsive transcript FKBP5; assay: AR functional RT-qPCR assay (FKBP5 transcript) in CWR22Pc-R1-AD1 cells; assay type: cell-based, human; conditions: 48 h, 1 nM DHT
Source text: oxygen from the donor to the acceptor, exciting a fluorophore to emit light at 520-620 nm5.
Two primary anti-AR antibodies derived from mouse and rabbit were applied to bind AR simultaneously at separate epitopes. Secondary AlphaScreen® antibodies were combined with the primary antibodies in the form of AlphaScreen® donor beads functionalised with antibodies recognising mouse antibody IgG (PerkinElmer AS104D), and AlphaScreen® acceptor beads functionalised with antibodies recognising rabbit antibody IgG (PerkinElmer AL104C). […]
red free RPMI1640 media supplemented with 10% charcoal-stripped serum was used throughout. […] Media was removed using an ELX405 CW washer (BioTek) and 12 µL RealTime ready Cell Lysis Kit supplemented with RNAse inhibitor (Roche) was added per well. […] RealTime ready RNA Virus Master Mix (Roche) was prepared following manufacturer’s instructions, supplemented with primers and probes for FKBP5 (FAM, IDT Ref Seq # NM_001145776(3)) and β-Actin (VIC, IDT Ref Seq # NM_001101(1)). […] PCR plates were sealed and analysed using a LightCycer®II 480 (Roche). […] 40 PCR cycles were performed consisting of 30 sec at 95 °C, 20 sec at 60 °C, fluorescence acquisition, and 1 sec at 72 °C. Calculated Cq values were exported for analysis. […]

| IC50 [1] [µM] | SMILES | Conclusion: activity in ARE-Luciferase assay [1] | reduction of AR-responsive transcript FKBP5 (RT-qPCR) [2] |
| --- | --- | --- | --- |
| 11 | Cc1c(CN2CCC(Nc3ncnc4sc(CC(F)(F)F)cc34)CC2)ccc2c1cc(C#N)n2Cc1cn[nH]c1 [MI-503] | Active | confirmed |
| 7.4 | N#Cc1cc2cc(CN3CCC(Nc4ncnc5sc(CC(F)(F)F)cc45)CC3)ccc2[nH]1 [MI-136] | Active | confirmed |
